Reference: US8455497B2, “Inhibitors of aspartyl protease” (Vertex Pharmaceuticals Incorporated, priority 1999, dated 2013)
Like-named read-outs stand apart in the source and are kept apart here.

Tests used:
[1] = test system: HIV-1 (strain IIIB); test: Antiviral activity assay in MT4 cells (propidium iodide based); assay type: cell-based
Method in brief: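 MT4 cells infected with HIV-1 IIIB (MOI 100×TCID50, 1 hr, 37°C), diluted 6-fold into wells with serially diluted compound, incubated 5 days. Cells lysed with Nonidet-40; DNA content per well estimated by propidium iodide staining as the viability read-out, with mock-infected controls.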

[2] = test system: D545701-14 multi protease inhibitor resistant virus; test: Anti-viral activity against resistant virus D545701-14 in MT4 cells; assay type: cell-based, HIV-1
[3] = test system: EP13 multi protease inhibitor resistant virus; test: Anti-viral activity against resistant virus EP13 in MT4 cells; assay type: cell-based, HIV-1
Method in brief: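 MT4 cells infected for 1 h at 37 °C, MOI 100×TCID50, then diluted 6-fold onto pre-diluted compound and cultured 5 days (5% CO2). Viable-cell DNA content estimated by propidium iodide. EP13 carries protease mutations M46I, L63P, A71V, V82F/L, I84V, no RT mutations.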

[4] = Human immunodeficiency virus 1, IIIB, wild type HIV-1 virus, MT4 cells, read-out: Wildtype virus - IC50
[5] = Human immunodeficiency virus 1, MT4, read-out: D545701-14 mutant - IC50, D545701-14 multi protease inhibitor resistant virus, MT4 cells
[6] = Human immunodeficiency virus 1, MT4, read-out: EP13 mutant IC50, EP13 multi protease inhibitor resistant virus, MT4 cells
[7] = Human immunodeficiency virus 1, MT4, read-out: D545701-14 mutant - IC50
[8] = Human immunodeficiency virus 1, MT4, read-out: EP13 mutant IC50

Structure (SMILES)	IC50 [1, 4] [nM]	IC50 [2, 5] [nM]	IC50 [3, 6] [nM]	IC50 ([2]; read-out: D545701-14 mutant - IC50, D545701-14 multi protease inhibitor resistant virus, MT4 cells) [nM]	IC50 [2, 7] [nM]	IC50 [3, 8] [nM]	IC50 ([1]; Human immunodeficiency virus 1, MT4, 120 h, MT-4 cells, HIV-1 strain IIIB, 5 days, read-out: IC50 (Antiviral Activity of Compounds of the Invention)) [nM]
CC(C)CN(C[C@@H](O)[C@H](Cc1ccc(OCC(N)=O)cc1)NC(=O)O[C@H]1CO[C@H]2OCC[C@H]21)S(=O)(=O)c1ccc2c(c1)OCO2 [Compound 314, (3R,3aS,6aR)-Hexahydrofuro[2,3-b]furan-3-yl (1S,2R)-1-[4-(2-amino-2-oxoethoxy)benzyl]-3-[(1,3-benzodioxol-5-ylsulfonyl)(isobutyl)amino]-2-hydroxypropylcarbamate]	10 to 100	10 to 100	10 to 100				
CC(C)CN(C[C@@H](O)[C@H](Cc1ccc(OCCc2ccccc2)cc1)NC(=O)O[C@H]1CO[C@H]2OCC[C@H]21)S(=O)(=O)c1ccc2c(c1)OCO2 [Compound 352, (3R,3aS,6aR)hexahydrofuro[2,3-b]furan-3-yl (1S,2R)-3[(1,3-benzodioxol-5-ylsulfonyl)(isobutyl)amino]-2-hydroxy-1-[4-(phenethyloxy)benzyl]propylcarbamate]	< 1	1 to 10	< 1				
CC(C)CN(C[C@@H](O)[C@H](Cc1ccc(OCc2ccc(C#N)cc2)cc1)NC(=O)O[C@H]1CO[C@H]2OCC[C@H]21)S(=O)(=O)c1ccc2c(c1)OCO2 [Compound 381, (3R,3aS,6aR)-hexahydrofuro[2,3-b]furan-3-yl (1S,2R)-3-[(1,3-benzodioxol-5-ylsulfonyl)(isobutyl)amino]-1-{4-[(4-cyanobenzyl)oxy]benzyl}-2-hydroxypropylcarbamate]	1 to 10	1 to 10	1 to 10				
CC(C)CN(C[C@@H](O)[C@H](Cc1ccc(OCc2csc3ccccc23)cc1)NC(=O)O[C@H]1CO[C@H]2OCC[C@H]21)S(=O)(=O)c1ccc2c(c1)OCO2 [Compound 387, (3R,3aS,6aR)-hexahydrofuro[2,3-b]furan-3-yl (1S,2R)-3-[(1,3-benzodioxol-5-ylsulfonyl)(isobutyl)amino]-1-[4-(1-benzothien-3-ylmethoxy)benzyl]-2-hydroxypropylcarbamate]	1 to 10	1 to 10	1 to 10				
CC(C)CN(C[C@@H](O)[C@H](Cc1ccc(OCCCc2ccccc2)cc1)NC(=O)O[C@H]1CO[C@H]2OCC[C@H]21)S(=O)(=O)c1ccc2c(c1)OCO2 [Compound 203, (3R,3aS,6aR)hexahydrofuro[2,3-b]furan-3-yl (1S,2R)-3-[(1,3-benzodioxol-5-ylsulfonyl)(isobutyl)amino]-2-hydroxy-1-[4-([3-phenylpropyl]oxy)benzyl]propylcarbamate]	< 1		1 to 10	10 to 100			
CC(C)CN(C[C@@H](O)[C@H](Cc1ccc(OCCCn2ccnc2)cc1)NC(=O)O[C@H]1CO[C@H]2OCC[C@H]21)S(=O)(=O)c1ccc2c(c1)OCO2 [Compound 278, (3R,3aS,6aR)-hexahydrofuro[2,3-b]furan-3-yl (1S,2R)-3-[(1,3-benzodioxol-5-ylsulfonyl)(isobutyl)amino]-2-hydroxy-1-{4-[3-(1H-imidazol-1-yl)propoxy]benzyl}propylcarbamate]	10 to 100	1 to 10	1 to 10				
CC(C)CN(C[C@@H](O)[C@H](Cc1ccc(OCc2cc(F)cc(F)c2)cc1)NC(=O)O[C@H]1CO[C@H]2OCC[C@H]21)S(=O)(=O)c1ccc2c(c1)OCO2 [Compound 380, (3R,3aS,6aR)-hexahydrofuro[2,3-b]furan-3-yl (1S,2R)-3-[(1,3-benzodioxol-5-ylsulfonyl)(isobutyl)amino]-1-{4-[(3,5-difluorobenzyl)oxy]benzyl}-2-hydroxypropylcarbamate]	1 to 10	10 to 100	1 to 10				
CNC(=O)COc1ccc(C[C@H](NC(=O)O[C@H]2CO[C@H]3OCC[C@H]32)[C@H](O)CN(CC(C)C)S(=O)(=O)c2ccc3c(c2)OCO3)cc1 [Compound 315, (3R,3aS,6aR)-Hexahydrofuro[2,3-b]furan-3-yl (1S,2R)-3[(1,3-benzodioxol-5-ylsulfonyl)(isobutyl)amino]-2-hydroxy-1-{4-[2-(methylamino)-2-oxoethoxy]benzyl}propylcarbamate]	10 to 100	1 to 10	1 to 10				
CC(C)CN(C[C@@H](O)[C@H](Cc1ccc(OCc2cccc([N+](=O)[O-])c2)cc1)NC(=O)O[C@H]1CO[C@H]2OCC[C@H]21)S(=O)(=O)c1ccc2c(c1)OCO2 [Compound 384, (3R,3aS,6aR)-hexahydrofuro[2,3-b]furan-3-yl (1S,2R)-3-[(1,3-benzodioxol-5-ylsulfonyl)(isobutyl)amino]-2-hydroxy-1-{4-[(3-nitrobenzyl)oxy]benzyl}propylcarbamate]	1 to 10	1 to 10	1 to 10				
COCCNCCCOc1ccc(C[C@H](NC(=O)O[C@H]2CO[C@H]3OCC[C@H]32)[C@H](O)CN(CC(C)C)S(=O)(=O)c2ccc3c(c2)OCO3)cc1 [Compound 283, (3R,3aS,6aR)-hexahydrofuro[2,3-b]furan-3-yl (1S,2R)-3-[(1,3-benzodioxol-5-ylsulfonyl)(isobutyl)amino]-2-hydroxy-1-(4-{3-[(2-methoxyethyl)amino]propoxy}benzyl) propylcarbamate]	10 to 100	10 to 100	1 to 10				
CC(C)CN(C[C@@H](O)[C@H](Cc1ccc(OCCNC(=O)OC(C)(C)C)cc1)NC(=O)O[C@H]1CO[C@H]2OCC[C@H]21)S(=O)(=O)c1ccc2c(c1)OCO2 [Compound 219, (3R,3aS,6aR)-hexahydrofuro[2,3-b]furan-3-yl (1S,2R)-3-[(1,3-benzodioxol-5-ylsulfonyl)(isobutyl)amino]-1-(4-{2-[(tert-butoxycarbonyl)amino]ethoxy}benzyl)-2-hydroxypropylcarbamate]	1 to 10	1 to 10	1 to 10				
O=C(N[C@@H](Cc1ccc(OCc2ccccc2)cc1)[C@H](O)CN(CC1CCCC1)S(=O)(=O)c1ccc2c(c1)OCO2)O[C@H]1CO[C@H]2OCC[C@H]21 [Compound 395, (3R,3aS,6aR)-hexahydrofuro[2,3-b]furan-3-yl (1S,2R)-3-[(1,3-benzodioxol-5-ylsulfonyl) (cyclopentylmethyl)amino]-1-[4-(benzyloxy)benzyl]-2-hydroxypropylcarbamate]	1 to 10	1 to 10	1 to 10				
COC(=O)NCCOc1ccc(C[C@H](NC(=O)O[C@H]2CO[C@H]3OCC[C@H]32)[C@H](O)CN(CC(C)C)S(=O)(=O)c2ccc3c(c2)OCO3)cc1 [Compound 356, (3R,3aS,6aR)hexahydrofuro[2,3-b]furan-3-yl (1S,2R)-3-[(1,3-benzodioxol-5-ylsulfonyl)(isobutyl)amino]-2-hydroxy-1-[4-(2-[(methoxycarbonyl)amino]ethoxy)benzyl]propylcarbamate]	1 to 10				< 1	1 to 10	
CC(C)CN(C[C@@H](O)[C@H](Cc1ccc(Oc2ccc([N+](=O)[O-])cn2)cc1)NC(=O)O[C@H]1CO[C@H]2OCC[C@H]21)S(=O)(=O)c1ccc2c(c1)OCO2 [Compound 333, (3R,3aS,6aR)-hexahydrofuro[2,3-b]furan-3-yl (1S,2R)-3-[(1,3-benzodioxol-5-ylsulfonyl)(isobutyl)amino]-2-hydroxy-1-{4-[(5-nitro-2-pyridinyl)oxy]benzyl}propylcarbamate]	1 to 10	1 to 10	1 to 10				
CC(C)CN(C[C@@H](O)[C@H](Cc1ccc(OCc2ccccn2)cc1)NC(=O)O[C@H]1CO[C@H]2OCC[C@H]21)S(=O)(=O)c1ccc2c(c1)OCO2 [Compound 53, Bis-THF Methylenedioxybenzenesulfonamide 2-picolyl Tethered Product]	1 to 10	1 to 10	1 to 10				1 to 10
CC(C)CN(C[C@@H](O)[C@H](Cc1ccc(OCCNS(C)(=O)=O)cc1)NC(=O)O[C@H]1CO[C@H]2OCC[C@H]21)S(=O)(=O)c1ccc2c(c1)OCO2 [Compound 357, (3R,3aS,6aR)hexahydrofuro[2,3-b]furan-3-yl (1S,2R)-3-[(1,3-benzodioxol-5-ylsulfonyl)(isobutyl)amino]-2-hydroxy-1-[4-(2-[(methylsulfonyl)amino]ethoxy)benzyl]propylcarbamate]	10 to 100				10 to 100	1 to 10	
CC(C)CN(C[C@@H](O)[C@H](Cc1ccc(OCCCCN(C)C)cc1)NC(=O)O[C@H]1CO[C@H]2OCC[C@H]21)S(=O)(=O)c1ccc2c(c1)OCO2 [Compound 275, (3R,3aS,6aR)-hexahydrofuro[2,3-b]furan-3-yl (1S,2R)-3-[(1,3-benzodioxol-5-ylsulfonyl)(isobutyl)amino]-1-{4-[4-(dimethylamino)butoxy]benzyl}-2-hydroxypropylcarbamate]	10 to 100	10 to 100	1 to 10				
CC(C)CN(C[C@@H](O)[C@H](Cc1ccc(OCCCCNC(=O)OC(C)(C)C)cc1)NC(=O)O[C@H]1CO[C@H]2OCC[C@H]21)S(=O)(=O)c1ccc2c(c1)OCO2 [Compound 223, (3R,3aS,6aR)-hexahydrofuro[2,3-b]furan-3-yl (1S,2R)-3-(1,3-benzodioxol-5-ylsulfonyl)(isobutyl)amino-1-(4-{4-[(tert-butoxycarbonyl)amino]butoxy}benzyl)-2-hydroxypropylcarbamate]	1 to 10	1 to 10	1 to 10				
